This note sets out measurements from patent US20090005436A1, “Substituted Aminoalkyl- and Amidoalkyl-Benzopyran Derivatives” (NEWRON PHARMACEUTICALS S.p.A., priority 2005, published 2009).

One test addresses T1, MAO-A (Rattus norvegicus, UniProt P21396).
T1 sequence (P21396 1-526): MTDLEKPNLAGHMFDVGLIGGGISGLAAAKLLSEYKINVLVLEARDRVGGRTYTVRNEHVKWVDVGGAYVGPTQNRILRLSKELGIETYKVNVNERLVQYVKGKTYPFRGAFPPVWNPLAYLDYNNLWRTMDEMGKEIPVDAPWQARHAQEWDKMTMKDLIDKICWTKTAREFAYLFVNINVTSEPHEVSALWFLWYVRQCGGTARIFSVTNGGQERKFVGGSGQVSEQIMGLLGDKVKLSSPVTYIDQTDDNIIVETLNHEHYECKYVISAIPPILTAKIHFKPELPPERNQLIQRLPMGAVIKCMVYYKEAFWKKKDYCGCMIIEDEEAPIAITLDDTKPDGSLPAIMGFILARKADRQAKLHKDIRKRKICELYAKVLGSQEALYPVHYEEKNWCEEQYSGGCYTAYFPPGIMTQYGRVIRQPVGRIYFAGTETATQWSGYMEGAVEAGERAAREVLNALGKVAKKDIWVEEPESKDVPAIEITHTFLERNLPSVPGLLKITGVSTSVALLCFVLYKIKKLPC
Nature of the test: In vitro MAO-A enzyme activity radioenzymatic assay (14C-serotonin substrate), rat brain crude mitochondrial fraction.

The target in the next test is T2, MAO-B (Rattus norvegicus, UniProt P19643).
T2 sequence (P19643 1-520): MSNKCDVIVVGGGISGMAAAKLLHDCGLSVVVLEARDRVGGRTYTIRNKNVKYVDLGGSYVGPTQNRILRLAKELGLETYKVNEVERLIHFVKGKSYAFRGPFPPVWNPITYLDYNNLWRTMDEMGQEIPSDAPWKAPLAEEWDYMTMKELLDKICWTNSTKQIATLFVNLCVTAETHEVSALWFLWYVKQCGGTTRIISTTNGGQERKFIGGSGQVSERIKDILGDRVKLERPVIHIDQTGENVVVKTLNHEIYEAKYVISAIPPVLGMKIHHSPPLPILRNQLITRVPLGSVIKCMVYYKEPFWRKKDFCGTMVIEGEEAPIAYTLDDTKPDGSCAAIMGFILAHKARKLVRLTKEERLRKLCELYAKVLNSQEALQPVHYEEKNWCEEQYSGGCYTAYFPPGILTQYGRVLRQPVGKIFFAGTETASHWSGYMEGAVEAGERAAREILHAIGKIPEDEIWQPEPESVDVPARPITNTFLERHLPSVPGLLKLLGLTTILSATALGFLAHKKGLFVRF
Nature of the test: In vitro MAO-B enzyme activity radioenzymatic assay (14C-phenylethylamine substrate), rat brain crude mitochondrial fraction.

pIC50: −log10 of the molar value. Where only a bound is given, the exact number is not on record here.

As to `NCCc1cc(=O)oc2cc(OCc3cccc(Cl)c3)ccc12` [4-(2-Aminoethyl)-7-(3-chlorobenzyloxy)-2H-chromen-2-one], the values for the pIC50 at MAO-A and at MAO-B were 4.50 and 6.60, respectively. For `NCc1cc(=O)oc2cc(OCc3cccc(Cl)c3)ccc12` [4-Aminomethyl-7-(3-chlorobenzyloxy)-2H-chromen-2-one], in that order: 5.72 and 8.00.

On to `CNCCc1cc(=O)oc2cc(OCc3cccc(Cl)c3)ccc12` [4-[2-(Methylamino)ethyl]-7-(3-chlorobenzyloxy)-2H-chromen-2-one], for which the results for the negative logarithm of the IC50 (pIC50) against MAO-A and against MAO-B were 4.13 and 6.52, respectively. For `NC(=O)Cc1cc(=O)oc2cc(OCc3cccc(F)c3)ccc12` [4-[(Aminocarbonyl)methyl]-7-(3-fluorobenzyloxy)-2H-chromen-2-one], the pIC50 (in general, −log10 of the IC50, conventionally taken in molar units) is 4.15 against MAO-A and 7.30 on MAO-B. `CN(C)C(=O)CC1=CCOc2cc(OCc3ccccc3)ccc21` [4-[(Dimethylaminocarbonyl)methyl]-7-benzyloxy-2H-chromene]: the negative logarithm of the IC50 (pIC50) on MAO-A was 4.82; against MAO-B it was 7.10. Regarding `NNC(=O)Cc1cc(=O)oc2cc(OCc3ccccc3)ccc12` [4-[(Hydrazinocarbonyl)methyl]-7-benzyloxy-2H-chromen-2-one], the negative-log IC50 (pIC50) against MAO-A is 5.85. Turning to `CNCc1cc(=O)oc2cc(OCc3cccc(Cl)c3)ccc12` [4-[(Methylamino)methyl]-7-(3-chlorobenzyloxy)-2H-chromen-2-one], the pIC50 at MAO-A is 5.23; against MAO-B, 8.00.

As to `CNCc1cc(=O)oc2cc(OCc3cccc(F)c3)ccc12` [4-[(Methylamino)methyl]-7-(3-fluorobenzyloxy)-2H-chromen-2-one], the negative logarithm of the IC50 (pIC50) is 4.87 against MAO-A and 7.70 on MAO-B.

Regarding `CN(C)C(=O)Cc1cc(=O)oc2cc(OCc3cccc(Cl)c3)ccc12` [4-[Dimethylaminocarbonyl)methyl]-7-(3-chlorobenzyloxy)-2H-chromen-2-one], the pIC50 on MAO-A is less than 4.00; at MAO-B, 7.40.
